Experimental data: patent US9113629B2, “4-amino-6-(4-substituted-phenyl)-picolinates and 6-amino-2-(4-substituted-phenyl)-pyrimidine-4-carboxylates and their use as herbicides” (DOW AGROSCIENCES LLC, priority 2013, dated 2015)
Like-named read-outs stand apart in the source and are kept apart here.

Key:
[1] = test system: Key Grass and Sedge Weeds as well as Grass Crops; assay: Post-emergent Test II herbicidal activity (Table 6); assay type: in vivo; settings: post-emergence, 336 h; for pest or weed control at 70 g/ha: application rate 70 g ai/ha; for pest or weed control at 140 g/ha: application rate 140 g ai/ha
How it was run: (§1)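 Plants grown in Metro-Mix 360 (pH 6.0–6.8) in a greenhouse (~15 h photoperiod, 23–29 °C day) to first or second true leaf stage, then sprayed with compound in acetone/DMSO/aqueous crop-oil-surfactant carrier at 187 L/ha by track sprayer. Injury visually scored 0–100% versus untreated plants after 14 d.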

[2] = test system: Key Broadleaf Weed and Crop Species; assay: Post-emergent Test II herbicidal activity (Table 5); assay type: in vivo; settings: post-emergence, 336 h, post-emergent, 14 days after application; for pest or weed control at 70 g/ha: 70 g ai/ha; for pest or weed control at 140 g/ha: 140 g ai/ha
How it was run: as §1

[3] = Triticum aestivum, TRZSS (wheat), read-out: Visual Growth Reduction (%) 14 Days After Application, TRZSS
[4] = CYPES: yellow nutsedge (Cyperus esculentus), read-out: Visual Growth Reduction (%) 14 Days After Application, CYPES
[5] = DIGSA: crabgrass (Digitaria sanguinalis), read-out: Visual Growth Reduction (%) 14 Days After Application, DIGSA
[6] = ECHCG: barnyardgrass (Echinochloa crus-galli), read-out: Visual Growth Reduction (%) 14 Days After Application, ECHCG
[7] = ORYSA: rice (Oryza sativa), read-out: Visual Growth Reduction (%) 14 Days After Application, ORYSA
[8] = SETFA: giant foxtail (Setaria faberi), read-out: Visual Growth Reduction (%) 14 Days After Application, SETFA
[9] = SORVU: grain sorghum (Sorghum vulgare), read-out: Visual Growth Reduction (%) 14 Days After Application, SORVU
[10] = ZEAMX: maize, corn (Zea mays), read-out: Visual Growth Reduction (%) 14 Days After Application, ZEAMX
[11] = ABUTH: velvetleaf (Abutilon theophrasti), read-out: Visual Growth Reduction (%) 14 Days After Application ABUTH
[12] = AMARE: redroot pigweed (Amaranthus retroflexus), read-out: Visual Growth Reduction (%) 14 Days After Application AMARE
[13] = BRSNN: oilseed-rape, canola (Brassica napus), read-out: Visual Growth Reduction (%) 14 Days After Application BRSNN
[14] = CHEAL: lambsquarters (Chenopodium album), read-out: Visual Growth Reduction (%) 14 Days After Application CHEAL
[15] = EPHHL: wild poinsettia (Euphorbia heterophylla), read-out: Visual Growth Reduction (%) 14 Days After Application EPHHL
[16] = HELAN: sunflower (Helianthus annuus), read-out: Visual Growth Reduction (%) 14 Days After Application HELAN
[17] = VIOTR: wild pansy (Viola tricolor), read-out: Visual Growth Reduction (%) 14 Days After Application VIOTR

SMILES | pest or weed control at 70 g/ha [1, 3] [%] | pest or weed control at 140 g/ha [1, 3] [%] | pest or weed control at 70 g/ha [1, 4] [%] | pest or weed control at 140 g/ha [1, 4] [%] | pest or weed control at 70 g/ha [1, 5] [%] | pest or weed control at 140 g/ha [1, 5] [%] | pest or weed control at 70 g/ha [1, 6] [%] | pest or weed control at 140 g/ha [1, 6] [%] | pest or weed control at 70 g/ha [1, 7] [%] | pest or weed control at 140 g/ha [1, 7] [%] | pest or weed control at 70 g/ha [1, 8] [%] | pest or weed control at 140 g/ha [1, 8] [%] | pest or weed control at 70 g/ha [1, 9] [%] | pest or weed control at 140 g/ha [1, 9] [%] | pest or weed control at 70 g/ha [1, 10] [%] | pest or weed control at 140 g/ha [1, 10] [%] | pest or weed control at 70 g/ha [2, 11] [%] | pest or weed control at 140 g/ha [2, 11] [%] | pest or weed control at 70 g/ha [2, 12] [%] | pest or weed control at 140 g/ha [2, 12] [%] | other results
C#Cc1ccc(-c2cc(N)c(Cl)c(C(=O)OC)n2)cc1 [Compound 126] | 0 to 29 | 0 to 29 | 60 to 74 | 30 to 44 | 75 to 84 | 85 to 94 | 95 to 100 | 95 to 100 | 0 to 29 | 0 to 29 | 0 to 29 | 75 to 84 | 75 to 84 | 85 to 94 | 0 to 29 | 60 to 74 | 95 to 100 | 95 to 100 | 95 to 100 | 95 to 100 | pest or weed control at 70 g/ha [2, 13]: 75 to 84%; pest or weed control at 140 g/ha [2, 13]: 85 to 94%; pest or weed control at 70 g/ha [2, 14]: 95 to 100%; pest or weed control at 140 g/ha [2, 14]: 95 to 100%; pest or weed control at 70 g/ha [2, 15]: 95 to 100%; pest or weed control at 140 g/ha [2, 15]: 95 to 100%; pest or weed control at 70 g/ha [2, 16]: 85 to 94%; pest or weed control at 140 g/ha [2, 16]: 95 to 100%; pest or weed control at 70 g/ha [2, 17]: 0 to 29%; pest or weed control at 140 g/ha [2, 17]: 30 to 44%
COC(=O)c1nc(-c2cc(F)c(Br)cc2F)cc(N)c1Cl [Compound 127, methyl 4-amino-6-(4-bromo-2,5-difluorophenyl)-3-chloropicolinate] | 60 to 74 | 75 to 84 | 95 to 100 | 95 to 100 | 85 to 94 | 95 to 100 | 95 to 100 | 95 to 100 | 0 to 29 | 0 to 29 | 95 to 100 | 95 to 100 | 95 to 100 | 95 to 100 | 85 to 94 | 85 to 94 | 95 to 100 | 95 to 100 | 95 to 100 | 95 to 100 | pest or weed control at 70 g/ha [2, 13]: 85 to 94%; pest or weed control at 140 g/ha [2, 13]: 95 to 100%; pest or weed control at 70 g/ha [2, 14]: 95 to 100%; pest or weed control at 140 g/ha [2, 14]: 95 to 100%; pest or weed control at 70 g/ha [2, 15]: 95 to 100%; pest or weed control at 140 g/ha [2, 15]: 95 to 100%; pest or weed control at 70 g/ha [2, 16]: 85 to 94%; pest or weed control at 140 g/ha [2, 16]: 95 to 100%; pest or weed control at 70 g/ha [2, 17]: 95 to 100%; pest or weed control at 140 g/ha [2, 17]: 95 to 100%
Nc1cc(-c2cc(F)c(I)cc2F)nc(C(=O)O)c1Cl [Compound 131] | 60 to 74 | 75 to 84 | 85 to 94 | 85 to 94 | 75 to 84 | 75 to 84 | 95 to 100 | 95 to 100 | 0 to 29 | 30 to 44 | 95 to 100 | 95 to 100 | 60 to 74 | 75 to 84 | 85 to 94 | 85 to 94 | 95 to 100 | 95 to 100 | 95 to 100 | 95 to 100 | pest or weed control at 70 g/ha [2, 13]: 95 to 100%; pest or weed control at 140 g/ha [2, 13]: 95 to 100%; pest or weed control at 70 g/ha [2, 14]: 95 to 100%; pest or weed control at 140 g/ha [2, 14]: 95 to 100%; pest or weed control at 70 g/ha [2, 15]: 95 to 100%; pest or weed control at 140 g/ha [2, 15]: 95 to 100%; pest or weed control at 70 g/ha [2, 16]: 85 to 94%; pest or weed control at 140 g/ha [2, 16]: 95 to 100%; pest or weed control at 70 g/ha [2, 17]: 95 to 100%; pest or weed control at 140 g/ha [2, 17]: 95 to 100%
